Experimental data published in patent US20200190081A1, “META SUBSTITUTED PHENYLPYRAZOLO- AND PHENYLPYRROLO- PYRIDAZINE DERIVATIVES HAVING MULTIMODAL ACTIVITY AGAINST PAIN” (ESTEVE PHARMACEUTICALS, S.A., priority 2016, published 2020).

Assays:
[1] = target: Human α2δ-1 Subunit of Cav2.2 Calcium Channel (Homo sapiens, UniProt P54289); assay: Human α2δ-1 subunit of Cav2.2 calcium channel assay, [3H]-Gabapentin binding; settings: human α2δ-1 enriched membranes, 15 nM [3H]-Gabapentin
Description: Human α2δ-1 Subunit of Cav2.2 Calcium Channel Assay
Human α2δ-1 enriched membranes (2.5 μg) were incubated with 15 nM of radiolabeled [3H]-Gabapentin in assay buffer containing Hepes-KOH 10 mM, pH 7.4. NSB (non specific binding) was measured by adding 10 μM pregabalin. The binding of the test compound was measured at five different concentrations. After 60 min incubation at 27° C., binding reaction was terminated by filtering through Multiscreen GF/C (Millipore) presoaked in 0.5% polyethyleneimine in Vacuum Manifold Station, followed by 3 washes with ice-cold filtration buffer containing 50 mM Tris-HCl, pH 7.4. Filter plates were dried at 60° C. for 1 hour and 30 μl of scintillation cocktail were added to each well before radioactivity reading. Readings were performed in a Trilux 1450 Microbeta radioactive counter (Perkin Elmer).

[2] = target: Human norepinephrine transporter (NET) (Homo sapiens, UniProt P23975); assay: Binding assay to human norepinephrine transporter (NET), [3H]-Nisoxetin; settings: human NET enriched membranes, 5 nM [3H]-Nisoxetin
Description: Binding Assay to Human Norepinephrine Transporter (NET).
Human norepinephrine transporter (NET) enriched membranes (5 μg) were incubated with 5 nM of radiolabeled [3H]-Nisoxetin in assay buffer containing 50 mM Tris-HCl, 120 mM NaCl, 5 mM KCl, pH 7.4. NSB (non specific binding) was measured by adding 10 μM of desipramine. The binding of the test compound was measured at five different concentrations. After 60 min incubation at 4° C., binding reaction was terminated by filtering through Multiscreen GF/C (Millipore) presoaked in 0.5% polyethyleneimine in Vacuum Manifold Station, followed by 3 washes with ice-cold filtration buffer containing 50 mM Tris-HCl, 0.9% NaCl, pH 7.4. Filter plates were dried at 60° C. for 1 hour and 30 μl of scintillation cocktail were added to each well before radioactivity reading. Readings were performed in a Trilux 1450 Microbeta radioactive counter (Perkin Elmer).

Sequence of Human norepinephrine transporter (NET) (P23975 whole entry): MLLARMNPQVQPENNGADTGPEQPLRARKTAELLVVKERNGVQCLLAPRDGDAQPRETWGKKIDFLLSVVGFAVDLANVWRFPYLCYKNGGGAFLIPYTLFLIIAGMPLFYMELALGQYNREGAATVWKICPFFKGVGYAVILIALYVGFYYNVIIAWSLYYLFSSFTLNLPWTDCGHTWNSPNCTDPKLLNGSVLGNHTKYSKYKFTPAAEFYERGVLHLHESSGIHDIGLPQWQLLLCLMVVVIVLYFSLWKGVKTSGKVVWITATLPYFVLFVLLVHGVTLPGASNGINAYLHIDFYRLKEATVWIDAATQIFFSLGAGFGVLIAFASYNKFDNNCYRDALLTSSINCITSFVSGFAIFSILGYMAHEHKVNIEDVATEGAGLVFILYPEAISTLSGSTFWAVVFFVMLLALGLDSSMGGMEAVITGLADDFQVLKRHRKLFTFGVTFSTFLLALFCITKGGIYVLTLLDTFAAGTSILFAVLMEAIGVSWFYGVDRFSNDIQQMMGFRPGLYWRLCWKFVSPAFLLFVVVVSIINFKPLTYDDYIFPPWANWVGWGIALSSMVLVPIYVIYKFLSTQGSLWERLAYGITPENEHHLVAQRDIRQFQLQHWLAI
Sequence of Human α2δ-1 Subunit of Cav2.2 Calcium Channel (P54289 25-1103): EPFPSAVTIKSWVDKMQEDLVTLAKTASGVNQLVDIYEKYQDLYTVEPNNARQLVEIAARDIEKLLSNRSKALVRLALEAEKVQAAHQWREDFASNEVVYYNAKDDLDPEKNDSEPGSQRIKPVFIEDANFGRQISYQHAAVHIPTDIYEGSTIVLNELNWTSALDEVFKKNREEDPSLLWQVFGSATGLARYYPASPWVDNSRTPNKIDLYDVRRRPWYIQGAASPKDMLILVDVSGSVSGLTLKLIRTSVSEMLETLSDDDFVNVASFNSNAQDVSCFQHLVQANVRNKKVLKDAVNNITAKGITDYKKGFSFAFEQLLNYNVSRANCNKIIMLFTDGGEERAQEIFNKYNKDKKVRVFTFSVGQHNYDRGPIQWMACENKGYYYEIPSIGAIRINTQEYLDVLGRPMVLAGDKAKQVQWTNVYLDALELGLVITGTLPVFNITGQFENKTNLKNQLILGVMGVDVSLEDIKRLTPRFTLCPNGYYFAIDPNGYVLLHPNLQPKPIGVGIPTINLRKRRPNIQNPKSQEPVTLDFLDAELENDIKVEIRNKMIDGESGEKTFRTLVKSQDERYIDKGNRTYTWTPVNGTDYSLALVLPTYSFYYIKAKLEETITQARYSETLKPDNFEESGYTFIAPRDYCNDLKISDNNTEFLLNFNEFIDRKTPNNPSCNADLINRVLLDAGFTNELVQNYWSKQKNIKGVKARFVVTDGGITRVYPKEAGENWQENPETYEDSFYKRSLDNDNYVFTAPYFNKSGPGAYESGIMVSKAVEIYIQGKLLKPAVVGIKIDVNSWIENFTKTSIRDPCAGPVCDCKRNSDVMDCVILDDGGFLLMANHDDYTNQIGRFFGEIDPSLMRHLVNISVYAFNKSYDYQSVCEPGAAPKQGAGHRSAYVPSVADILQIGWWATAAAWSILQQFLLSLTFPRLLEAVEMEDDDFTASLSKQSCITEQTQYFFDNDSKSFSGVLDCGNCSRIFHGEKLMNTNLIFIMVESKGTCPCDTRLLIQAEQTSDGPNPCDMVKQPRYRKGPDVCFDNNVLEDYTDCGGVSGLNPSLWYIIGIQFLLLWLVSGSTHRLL

Row | Ki [1] | Ki [2] | Compound
1 | 500 to 5000 nM | < 100 nM | CNCCC(Oc1cccc(-n2nc3c(N(C)C)nnc(C)c3c2C)c1)c1cccc(OC)c1 (stereo not drawn) [Example 39, 2-(3-(1-(3-methoxyphenyl)-3-(methylamino)propoxy)phenyl)-N,N,3,4-tetramethyl-2H-pyrazolo[3,4-d]pyridazin-7-amine]
2 | 500 to 5000 nM | 100 to 500 nM | CNCCC(Oc1cccc(-n2nc3c(N(C)C)nnc(C)c3c2C)c1)c1ccc(OC(F)(F)F)cc1 (stereo not drawn) [Example 46, N,N,3,4-tetramethyl-2-(3-(3-(methylamino)-1-(4-(trifluoromethoxy)phenyl)propoxy)phenyl)-2H-pyrazolo[3,4-d]pyridazin-7-amine]
3 | 500 to 5000 nM | < 100 nM | CNCCC(Oc1cccc(-n2nc3c(N(C)C)nnc(C)c3c2C)c1)c1ccncc1 (stereo not drawn) [Example 10, N,N,3,4-tetramethyl-2-(3-(3-(methylamino)-1-(pyridin-4-yl)propoxy)phenyl)-2H-pyrazolo[3,4-d]pyridazin-7-amine]
4 | 500 to 5000 nM | 100 to 500 nM | CNCCC(Cc1ccccc1)Oc1cccc(-n2nc3c(N(C)C)nnc(C)c3c2C)c1 (stereo not drawn) [Example 38, N,N,3,4-tetramethyl-2-(3-((4-(methylamino)-1-phenylbutan-2-yl)oxy)phenyl)-2H-pyrazolo[3,4-d]pyridazin-7-amine]
5 | < 500 nM | 100 to 500 nM | CNCC[C@H](Oc1cccc(-n2nc3c(N(C)C)nnc(C)c3c2C)c1)c1cccnc1 [Example 64, (S)-N,N,3,4-tetramethyl-2-(3-(3-(methylamino)-1-(pyridin-3-yl)propoxy)phenyl)-2H-pyrazolo[3,4-d]pyridazin-7-amine]
6 | 500 to 5000 nM | 100 to 500 nM | CNCCC(Oc1cccc(-n2nc3c(N(C)C)nnc(C)c3c2C)c1)c1ccccc1OC (stereo not drawn) [Example 36, 2-(3-(1-(2-methoxyphenyl)-3-(methylamino)propoxy)phenyl)-N,N,3,4-tetramethyl-2H-pyrazolo[3,4-d]pyridazin-7-amine]
7 | 500 to 5000 nM | ≥ 1000 nM | CNCC(Oc1cccc(-n2nc3c(N(C)C)nnc(C)c3c2C)c1)c1cccnc1 (stereo not drawn) [Example 45, N,N,3,4-tetramethyl-2-(3-(2-(methylamino)-1-(pyridin-3-yl)ethoxy)phenyl)-2H-pyrazolo[3,4-d]pyridazin-7-amine]
8 | 500 to 5000 nM | < 100 nM | CNCC[C@H](Oc1cccc(-n2nc3c(N(C)C)nnc(C)c3c2C)c1)c1ccccc1F [Example 63, (S)-2-(3-(1-(2-fluorophenyl)-3-(methylamino)propoxy)phenyl)-N,N,3,4-tetramethyl-2H-pyrazolo[3,4-d]pyridazin-7-amine]
9 | 500 to 5000 nM | < 100 nM | CNCCC(Oc1cccc(-n2nc3c(N(C)CCCO)nnc(C)c3c2C)c1)c1ccccc1F (stereo not drawn) [Example 32, 3-((2-(3-(1-(2-fluorophenyl)-3-(methylamino)propoxy)phenyl)-3,4-dimethyl-2H-pyrazolo[3,4-d]pyridazin-7-yl)(methyl)amino)propan-1-ol]
10 | 500 to 5000 nM | 500 to 1000 nM | CNc1nnc(C)c2c(C)n(-c3cccc(OC(CCN)c4ccccc4)c3)nc12 (stereo not drawn) [Example 24, 2-(3-(3-amino-1-phenylpropoxy)phenyl)-N,3,4-trimethyl-2H-pyrazolo[3,4-d]pyridazin-7-amine]
11 | 500 to 5000 nM | 100 to 500 nM | Cc1nnc(N(C)C)c2nn(-c3cccc(OC(CCN)c4cccc(F)c4)c3)c(C)c12 (stereo not drawn) [Example 21, 2-(3-(3-amino-1-(3-fluorophenyl)propoxy)phenyl)-N,N,3,4-tetramethyl-2H-pyrazolo[3,4-d]pyridazin-7-amine]
12 | 500 to 5000 nM | ≥ 1000 nM | Cc1nnc(N(C)C)c2nn(-c3cccc(OC(CCN)c4cccnc4)c3)c(C)c12 (stereo not drawn) [Example 50, 2-(3-(3-amino-1-(pyridin-3-yl)propoxy)phenyl)-N,N,3,4-tetramethyl-2H-pyrazolo[3,4-d]pyridazin-7-amine]
13 | 500 to 5000 nM | 500 to 1000 nM | Cc1nnc(N)c2nn(-c3cccc(OC(CCN)c4ccccc4F)c3)c(C)c12 (stereo not drawn) [Example 28, 2-(3-(3-amino-1-(2-fluorophenyl)propoxy)phenyl)-3,4-dimethyl-2H-pyrazolo[3,4-d]pyridazin-7-amine]
14 | 500 to 5000 nM | 100 to 500 nM | CNCC(Oc1cccc(-n2nc3c(N(C)C)nnc(C)c3c2C)c1)c1ccccc1F (stereo not drawn) [Example 41, 2-(3-(1-(2-fluorophenyl)-2-(methylamino)ethoxy)phenyl)-N,N,3,4-tetramethyl-2H-pyrazolo[3,4-d]pyridazin-7-amine]
15 | 500 to 5000 nM | ≥ 1000 nM | Cc1nnc(N(C)C)c2nn(-c3cccc(OC(CN(C)C)c4cccnc4)c3)c(C)c12 (stereo not drawn) [Example 52, 2-(3-(2-(Dimethylamino)-1-(pyridin-3-yl)ethoxy)phenyl)-N,N,3,4-tetramethyl-2H-pyrazolo[3,4-d]pyridazin-7-amine]
16 | 500 to 5000 nM | 100 to 500 nM | CNCCC(Oc1cccc(-n2nc3c(N(C)C)nnc(C)c3c2C)c1)c1ccc(C(N)=O)cc1 (stereo not drawn) [Example 57, 4-(1-(3-(7-(dimethylamino)-3,4-dimethyl-2H-pyrazolo[3,4-d]pyridazin-2-yl)phenoxy)-3-(methylamino)propyl)benzamide]
17 | 500 to 5000 nM | 100 to 500 nM | CNCCC(Oc1cccc(-n2nc3c(N(C)C)nnc(C)c3c2C)c1)c1cccc(C(N)=O)c1 (stereo not drawn) [Example 56, 3-(1-(3-(7-(Dimethylamino)-3,4-dimethyl-2H-pyrazolo[3,4-d]pyridazin-2-yl)phenoxy)-3-(methylamino)propyl)benzamide]
18 | 500 to 5000 nM | 100 to 500 nM | Cc1nnc(N(C)C)c2nn(-c3cccc(OC(CN(C)C)c4ccccc4)c3)c(C)c12 (stereo not drawn) [Example 37, 2-(3-(2-(dimethylamino)-1-phenylethoxy)phenyl)-N,N,3,4-tetramethyl-2H-pyrazolo[3,4-d]pyridazin-7-amine]
